This note sets out measurements from PMC6032018, “Post-translational regulation of a Porphyromonas gingivalis regulator” (Journal of Oral Microbiology, 2018).

The target in assay [1] is T1, RprY (Porphyromonas gingivalis, UniProt B2RK10).
T1 construct: N-terminal His6-RprY (pETRprY), recombinant from E. coli BL21(DE3), 28 kDa ORF; already phosphorylated as purified
As to the kind of experiment: EMSA with nqrA promoter DNA and in vitro ChIP after treatment with AcP. The settings on record: phosphoryl donor; covalent; protein as purified already partly phosphorylated; acetylation by AcP not ruled out. In kind it is biochemical.

Assay [2] deals with T1, RprY. As to the kind of experiment: autoacetylation, anti-acetyl-lysine Western blot. The settings on record: 10 mM Tris-HCl pH 8.0, 37 °C, no added enzyme; covalent (lysine acetylation); acetyl donor. The format is biochemical.

Each structure is given as a SMILES string.

T1 sequence (B2RK10 entry or part of it): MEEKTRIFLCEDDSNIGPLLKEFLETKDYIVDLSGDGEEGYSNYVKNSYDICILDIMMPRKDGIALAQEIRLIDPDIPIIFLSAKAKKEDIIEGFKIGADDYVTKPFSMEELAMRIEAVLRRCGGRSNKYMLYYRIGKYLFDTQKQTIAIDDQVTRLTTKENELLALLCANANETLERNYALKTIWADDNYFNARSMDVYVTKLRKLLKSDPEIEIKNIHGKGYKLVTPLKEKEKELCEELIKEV

Take `CC(=O)OP(=O)(O)O` [acetyl phosphate]: the “EMSA with nqrA promoter DNA and in vitro ChIP after treatment with AcP” value in assay [1] is given as “increasing concentrations of AcP resulted in increased incorporation of the labelled promoter into RprY-DNA complexes”.

Regarding `CC(=O)SCCNC(=O)CCNC(=O)[C@H](O)C(C)(C)COP(=O)(O)OP(=O)(O)OC[C@H]1O[C@@H](n2cnc3c(N)ncnc32)[C@H](O)[C@@H]1OP(=O)(O)O` [acetyl-CoA], in assay [2], the “autoacetylation, anti-acetyl-lysine Western blot” value was “RprY was dependent on both the concentration of Ac-CoA and the length of incubation”.
